Test results as given in US20100278907A1, “Immunogenic Compositions Containing Ceramide and Methods of Use Thereof” (Medical College of Georgia Research Institute, Inc, priority 2008, published 2010).
Like-named read-outs stand apart in the source and are kept apart here.

Columns and labels:
[1] = acid-induced acute lung injury; cited from earlier work
[2] = LPS model; cited from earlier work
[3] = cited from earlier work
[4] = repeated lung lavage; given together with surfactant; cited from earlier work
Aβ biogenesis = conditions: cited from earlier work
[5] = test system: ceramide levels in F11 cells; assay: Immunocytochemistry for ceramide in treated F11 cells; type: cell-based
Procedure: (§1) For immunocytochemistry, F11 cells were grown on coverslips. Cells were incubated with myriocin for 3 days to inhibit de novo ceramide biosynthesis and reduce ceramide levels. To determine whether the antibody would cross-react with glycosphingolipids in the membrane, cells were incubated for 4 days with […] N-butyl-deoxynojirimycin (NB-dNJ), a glucosylceramide (GlcCer) synthase inhibitor known to inhibit glycosphingolipid biosynthesis. Control and myriocin- or NB-dNJ-treated cells were fixed with 4% p-formaldehyde in PBS for 20 min at room temperature. To release endogenous ceramide from sphingomyelin, fixed cells were incubated for 1 hour at 37° C. with 0.3 units (1 U/ml) of Staphylococcus aureus sphingomyelinase. Immunocytochemistry for ceramide was performed without the use of detergent for permeabilization. […] Confocal fluorescence microscopy was performed using a Zeiss LSM510 confocal laser scanning microscope equipped with a two photon argon laser at 488 nm (Cy2), 543 inn (Cy3), or 633 nm (Alexa Fluor: 647). […] Cells were washed with PBS, and stained cells were analyzed by flow cytometry, measuring the fluorescence emission at 530 nm. […]

[6] = test system: TNF-α effect on endothelium-dependent vasorelaxation; conditions: cited from earlier work
[7] = test system: ceramide levels in F11 cells; assay: Flow cytometry of F11 cells stained with anti-ceramide rabbit IgG; type: cell-based; conditions: F11 cells incubated with myriocin, stained with rabbit IgG fraction; FIG. 2
Procedure: as §1

[8] = test system: ceramide levels in F11 cells; assay: Ceramide levels by high-performance thin-layer chromatography; type: cell-based; conditions: myriocin incubation of F11 cells for 3 days; HPTLC

SMILES: S=C(S)OC1CC2CC1C1CCCC21 (stereo not shown) [D609, tricyclodecan-9-yl-xanthate]
- oxygenation [1]: improves
- pulmonary edema [1]: attenuates
- mortality [2]: attenuated
- pulmonary edema formation [2]: attenuated
- protection from ischaemia-induced cell death ([3]; administered before the ischaemic period): reproduces preconditioning protection

SMILES: CN(C)CCCN1c2ccccc2CCc2ccccc21 [imipramine]
- pulmonary inflammation [2]: attenuated
- duration of the beneficial effect [4]: 24 h
- edema formation [4]: ameliorates
- oxygenation [4]: advances

SMILES: CCCCCCCCCCCCC/C=C/[C@@H](O)[C@H](CO)NC(=O)CCCCC [C6 ceramide, N-hexanoylsphingosine]
- Aβ generation (Aβ biogenesis; FB1 treated cells): restored
- biogenesis of Aβ (Aβ biogenesis; exogenous C6 ceramide): promoted

SMILES: CCCCCCCC/C=C\CCCCCCCC(=O)NCCO [N-oleoylethanolamine]
- effect on preconditioning-like protection provided by TNF-a or C2-ceramide ([3]; ceramidase inhibitor): hinders
- effect on protection induced by ischaemic preconditioning ([3]; ceramidase inhibitor): does not hinder

SMILES: CCCCN1C[C@H](O)[C@@H](O)[C@H](O)[C@H]1CO [NB-dNJ, N-butyl-deoxynojirimycin]
- intensity of the ceramide immunostaining signal ([5]; F11 cells incubated for 4 days with 250 mM NB-dNJ): not changed significantly

SMILES: CNCCCN1c2ccccc2CCc2ccccc21 [desipramine]
- effect on TNF-α inhibition of endothelium-dependent vasorelaxation [6]: neutralizes

SMILES: CCCCCCCCCCCCC/C=C/[C@@H](O)[C@H](CO)NC(C)=O [C2-ceramide, N-acetyl sphingosine]
- ischaemic preconditioning-like protection ([3]; cell-permeable C2-ceramide compared with TNF-α preconditioning): TNF-a protection is reproduced

SMILES: CCCCCCC(=O)CCCCCC/C=C/C[C@@H](O)[C@H](O)[C@@](N)(CO)C(=O)O [myriocin]
- reduction of fluorescence intensity compared with control cells [7]: about 40%
- reduction of ceramide levels [8]: about 50%
- intensity of the ceramide immunostaining signal ([5]; F11 cells incubated with myriocin for 3 days, rabbit IgG and polyclonal IgM): reduced
